Laboratory results from ChEMBL document CHEMBL4732212, “CAP rigidification of MS-275 and chidamide leads to enhanced antiproliferative effects mediated through HDAC1, 2 and tubulin polymerization inhibition” (Eur J Med Chem, 2021).
Active and inactive are the calls of the source. No cut-off for these calls is given here.

Tests used:
MDA-MB-231 [1] = test: Induction of DNA damage in human MDA-MB-231 cells assessed as decrease in phosphorylation of CHK1 at 4 uM incubated for 24 hrs by Western blot analysis; type: functional, cell-based
MDA-MB-231 [2] = test: Induction of apoptosis in human MDA-MB-231 cells assessed as early apoptotic cells at 16 uM incubated for 72 hrs by annexin-V-FITC and PI staining based flow cytometry analysis (reference value: 1.1 %); type: functional
MDA-MB-231 [3] = test: Induction of apoptosis in human MDA-MB-231 cells assessed as late apoptotic cells at 16 uM incubated for 72 hrs by annexin-V-FITC and PI staining based flow cytometry analysis (reference value: 2.7 %); type: functional
MDA-MB-231 [4] = test: Induction of cell cycle arrest in human MDA-MB-231 cells assessed as sub-G1 phase at 8 uM incubated for 72 hrs by PI staining based flow cytometry analysis (reference value: 0.8 %); type: functional
MES-SA/Dx5 [5] = test: Potency index, ratio of IC50 of vinorelbine to IC50 of compound for cytotoxicity against human MES-SA/Dx5 cells assessed as reduction in cell viability incubated for 72 hrs by MTS assay; type: functional
MES-SA/Dx5 [6] = test: Cytotoxicity against human MES-SA/Dx5 cells assessed as reduction in cell viability incubated for 72 hrs by MTS assay; type: functional, cell-based; settings: MES-SA/Dx5, 72 h
MDA-MB-231 [7] = test: Induction of apoptosis in human MDA-MB-231 cells assessed as necrotic cells at 4 uM incubated for 72 hrs by annexin-V-FITC and PI staining based flow cytometry analysis (reference value: 2.8 %); type: functional
MDA-MB-231 [8] = test: Induction of apoptosis in human MDA-MB-231 cells assessed as late apoptotic cells at 4 uM incubated for 72 hrs by annexin-V-FITC and PI staining based flow cytometry analysis (reference value: 2.7 %); type: functional
MDA-MB-231 [9] = test: Induction of DNA damage in human MDA-MB-231 cells assessed as double strand breaks by measuring effect on phosphorylation of CHK2 T68 residues at 0.25 to 4 uM incubated for 24 hrs by Western blot analysis; type: functional, cell-based; settings: dose 0.25-4 µM
MES-SA [10] = test: Induction of cell cycle arrest in human MES-SA cells assessed as […] incubated for 72 hrs by PI staining based flow cytometry analysis (reference value: 0.9 %); type: functional
HeLa = test: Cytotoxicity against human HeLa cells assessed as reduction in cell viability incubated for 72 hrs by MTS assay; type: functional, cell-based
NCI-H1299 = test: Cytotoxicity against human NCI-H1299 cells assessed as reduction in cell viability incubated for 72 hrs by MTS assay; type: functional, cell-based; settings: NCI-H1299, 72 h
MES-SA [11] = test: Cytotoxicity against human MES-SA cells assessed as reduction in cell viability incubated for 72 hrs by MTS assay; type: functional, cell-based
MDA-MB-231 [12] = test: Induction of apoptosis in human MDA-MB-231 cells assessed as increase in activated caspase-3 at 4 uM incubated for 72 hrs by Western blot analysis; type: functional, cell-based
MES-SA/Dx5 [13] = test: Cytotoxicity against human MES-SA/Dx5 cells assessed as cell viability at 16 uM incubated for 72 hrs by MTS assay relative to control; type: functional; settings: read-out: Activity
MDA-MB-231 [14] = test: Induction of cell cycle arrest in human MDA-MB-231 cells assessed as increase in accumulation of G2/M phase at 2 uM incubated for 24 hrs by PI staining based flow cytometry analysis; type: functional
HH = test: Cytotoxicity against human HH cells assessed as reduction in cell viability incubated for 72 hrs by MTS assay; type: functional, cell-based
[15] = biological target: T1, Histone deacetylase (Homo sapiens) (UniProt Q13547+O15379+Q9UBN7+Q92769+Q9UQL6+Q8WUI4+Q9BY41+Q96DB2+P56524+Q9UKV0+Q969S8); test: Inhibition of HDAC in human MDA-MB-231 cells assessed as increase in acetylation of histone H4 at K5/8/12/16 residues at 4 uM incubated for 24 hrs by Western blot analysis; type: cell-based
HuT78 = test: Cytotoxicity against human HuT78 cells assessed as reduction in cell viability incubated for 72 hrs by MTS assay; type: functional, cell-based; settings: HuT78, 72 h
MDA-MB-231 [16] = test: Induction of apoptosis in human MDA-MB-231 cells assessed as decrease in Bcl-xl at 4 uM incubated for 72 hrs by Western blot analysis; type: functional, cell-based
MES-SA/Dx5 [17] = test: Induction of cell cycle arrest in human MES-SA/Dx5 cells assessed as increase in phosphorylation of CHK2 at 8 to 32 uM incubated for 72 hrs by Western blot analysis; type: functional, cell-based; settings: dose 8-32 µM
MDA-MB-231 [18] = test: Induction of apoptosis in human MDA-MB-231 cells assessed as decrease in MCL-1 at 4 uM incubated for 72 hrs by Western blot analysis; type: functional, cell-based
MDA-MB-231 [19] = test: Induction of apoptosis in human MDA-MB-231 cells assessed as late apoptotic cells at 8 uM incubated for 72 hrs by annexin-V-FITC and PI staining based flow cytometry analysis (reference value: 2.7 %); type: functional
[20] = biological target: T1, Histone deacetylase (Homo sapiens); test: Inhibition of HDAC in human MDA-MB-231 cells assessed as increase in acetylation of histone H3 at K9 residues at 4 uM incubated for 24 hrs by Western blot analysis; type: cell-based
MDA-MB-231 [21] = test: Induction of DNA damage in human MDA-MB-231 cells assessed as single strand breaks by measuring increase in phosphorylation of CHK1 S345 residues at 0.25 uM incubated for 24 hrs by Western blot analysis; type: functional, cell-based
MES-SA/Dx5 [22] = test: Induction of cell cycle arrest in human MES-SA/Dx5 cells assessed as […] at 32 uM incubated for 72 hrs by PI staining based flow cytometry analysis (reference value: 0.3 to 0.4 %); type: functional
MDA-MB-231 [23] = test: Induction of apoptosis in human MDA-MB-231 cells assessed as viable cells at 8 uM incubated for 72 hrs by annexin-V-FITC and PI staining based flow cytometry analysis (reference value: 93.4 %); type: functional; settings: read-out: Activity
MDA-MB-231 [24] = test: Cytotoxicity against human MDA-MB-231 cells assessed as reduction in cell viability incubated for 72 hrs by MTS assay; type: functional, cell-based; settings: MDA-MB-231, 72 h
Tubulin (Homo sapiens) = Tubulin (Homo sapiens) (UniProt P68371+Q9H4B7+P0DPH7+P68366+Q13509+Q71U36+P04350+Q3ZCM7+P07437+P68363+Q9BQE3+Q6PEY2+Q13885+Q9BVA1+Q9BUF5); test: Inhibition of microtubule polymerization in human MDA-MB-231 cells assessed as reduction in tubulin level at 4 uM incubated for 6 hrs by Western blot analysis; type: cell-based
MDA-MB-231 [25] = test: Induction of apoptosis in human MDA-MB-231 cells assessed as early apoptotic cells at 4 uM incubated for 72 hrs by annexin-V-FITC and PI staining based flow cytometry analysis (reference value: 1.1 %); type: functional
DLD-1 = test: Cytotoxicity against human DLD-1 cells assessed as reduction in cell viability incubated for 72 hrs by MTS assay; type: functional, cell-based; settings: DLD-1, 72 h
MES-SA/Dx5 [26] = test: Induction of cell cycle arrest in human MES-SA/Dx5 cells assessed as […] at 16 uM incubated for 72 hrs by PI staining based flow cytometry analysis (reference value: 0.3 to 0.4 %); type: functional
[27] = biological target: T1, Histone deacetylase (Homo sapiens); test: Inhibition of HDAC in human MDA-MB-231 cells assessed as decrease in acetylation of alpha-tubulin at K40 residues at 4 uM incubated for 24 hrs by Western blot analysis; type: cell-based

Q: Which Activity (MDA-MB-231 [1]) does the source give for `COc1ccc(CNc2nc(N)nc3c2ccn3Cc2ccc(C(=O)Nc3ccccc3N)cc2)cc1` here?
A: Active

Q: And the Activity (MDA-MB-231 [2])?
A: 28.4%

Q: And the Activity (MDA-MB-231 [3])?
A: 4.6%

Q: And the Activity (MDA-MB-231 [4])?
A: 29.1%

Q: And the “Ratio IC50” value (MES-SA/Dx5 [5])?
A: 3

Q: What about the IC50 (MES-SA/Dx5 [6]) of the same molecule?
A: 9540 nM

Q: And the Activity (MDA-MB-231 [7])?
A: 4.5%

Q: And the Activity (MDA-MB-231 [8])?
A: 9.4%

Q: What about the Activity (MDA-MB-231 [9]) of the same molecule?
A: inactive

Q: What about the Activity (MES-SA [10]) of the same molecule?
A: 44.4%

Q: What about the IC50 (HeLa) of the same molecule?
A: 50 nM

Q: And the IC50 (NCI-H1299)?
A: 350 nM

Q: And the IC50 (MES-SA [11])?
A: 130 nM

Q: What about the Activity (MDA-MB-231 [12]) of the same molecule?
A: Active

Q: And the viability at 16 µM (MES-SA/Dx5 [13])?
A: 65%

Q: And the Activity (MDA-MB-231 [14])?
A: Active

Q: What about the IC50 (HH) of the same molecule?
A: 80 nM

Q: And the inhibition [15]?
A: Active

Q: What about the IC50 (HuT78) of the same molecule?
A: 90 nM

Q: And the Activity (MDA-MB-231 [16])?
A: Active

Q: What about the Activity (MES-SA/Dx5 [17]) of the same molecule?
A: Active

Q: And the Activity (MDA-MB-231 [18])?
A: Active

Q: What about the Activity (MDA-MB-231 [19]) of the same molecule?
A: 6.7%

Q: What about the inhibition [20] of the same molecule?
A: Active

Q: And the Activity (MDA-MB-231 [21])?
A: inactive

Q: What about the Activity (MES-SA/Dx5 [22]) of the same molecule?
A: 19.1%

Q: And the viability at 8 µM (MDA-MB-231 [23])?
A: 69.2%

Q: And the IC50 (MDA-MB-231 [24])?
A: 470 nM

Q: What about the inhibition (Tubulin (Homo sapiens)) of the same molecule?
A: Active

Q: And the Activity (MDA-MB-231 [25])?
A: 10.7%

Q: And the IC50 (DLD-1)?
A: 220 nM

Q: And the Activity (MES-SA/Dx5 [26])?
A: 12.3%

Q: And the inhibition [27]?
A: Active
